Measured values: patent US4820867A, “Phenoxypropoxy halophenylacetic acids as leukotriene antagonists” (Merck Frosst Canada, Inc., priority 1986, dated 1989)

System: leukotriene D4 induced bronchoconstriction
Assay: inhibition of leukotriene D4 induced bronchoconstriction in anaesthetized guinea pigs (modified Konzett-Rossler)
Type: in vivo, guinea pig
Parameters: % Inhibition After 30 Min.: concentration or dose not given beside the values
Conditions: for ED50: Cavia porcellus, 10 min, directly into the duodenum, dose producing 50% inhibition when given 10 minutes before LTD4, read-out: ED50 (median effective dose), inhibition of LTD4 induced bronchoconstriction; for % Inhibition After 30 Min.: inhibition of LTD4 induced bronchoconstriction, intraduodenal, 30 min after antagonist administration
Description: The antagonist activity of the compounds of the present invention was determined by measuring their ability to inhibit leukotriene D4 induced bronchoconstriction in anaesthetized guinea pigs (modified Konzett-Rossler). When administrated directly into the duodenum (oral activity) they are active at 2.5-5 mg/kg. Oral activity is defined as the dose producing 50% inhibition when given 10 minutes before LTD4. Percent inhibition was determined at 10 minutes and also at 30 and 50 minutes after antagonist administration. The time interval between LTD4 administration was kept constant at 20 minutes in all experiments.
Table I is a comparison between three known leukotriene antagonists (entries 1, 2 and 3, see: G.B. Pat. No. 2,058,785, supra) and several compounds of the present invention (4-9).

Compound | ED50 | % Inhibition After 30 Min.
CCCc1c(OCC(O)COc2ccc(CC(=O)O)cc2Cl)ccc(C(C)=O)c1O (stereo not drawn) [Entry 7, 4-(3-(4-Acetyl-3-hydroxy-2-propylphenoxy)-2-hydroxypropoxy)-3-chlorobenzeneacetic acid] | 10 mg/kg | 63%
CCCc1c(OCCCOc2cccc(CCC(=O)O)c2)ccc(C(C)=O)c1O [Entry 2, reference compound] | 10 mg/kg | 32%
CCCc1c(OCCCOc2ccc(CC(=O)O)cc2F)ccc(C(C)=O)c1O [Entry 4, 4-(3-(4-Acetyl-3-hydroxy-2-propylphenoxy)-propoxy)-3-fluorobenzene acetic acid] | 10 mg/kg | 100%
CCCc1c(OCCCOc2ccc(C=CC(=O)O)cc2)ccc(C(C)=O)c1O [Entry 3, reference compound] | 20 mg/kg | 56%
CCCc1c(OCC(O)COc2ccc(CC(=O)O)cc2F)ccc(C(C)=O)c1O (stereo not drawn) [Entry 5, 4-(3-(4-Acetyl-3-hydroxy-2-propylphenoxy)-2-hydroxypropoxy)-3-fluorobenzeneacetic acid] | 2.5 mg/kg | 50%
CCCc1c(OCCCOc2ccc(CC(=O)O)cc2Cl)ccc(C(C)=O)c1O [Entry 8, 4-(3-(4-acetyl-3-hydroxy-2-propylphenoxy)propoxy)-3-chlorobenzene acetic] | 5 mg/kg | 60%
CCCc1c(OCCCOc2ccc(CC(=O)O)cc2Br)ccc(C(C)=O)c1O [Entry 9, 4-(3-(4-Acetyl-3-hydroxy-2-propylphenoxy)-propoxy)-3-bromobenzene acetic acid] | 10 mg/kg | 87%
CCCc1c(OCC(O)COc2ccc(CC(=O)O)cc2Br)ccc(C(C)=O)c1O (stereo not drawn) [Entry 6, 4-(3-(4-Acetyl-3-hydroxy-2-propylphenoxy)-2-hydroxypropoxy)-3-bromobenzene acetic acid] | 2.5 mg/kg | 35%
CCCc1c(OCCCOc2ccc(C(=O)O)cc2)ccc(C(C)=O)c1O [Entry 1, reference compound] | 10 mg/kg | 59%
